Assay results from ChEMBL document CHEMBL4342522 (J Med Chem, 2020).
Values belong to the compound of their own block, whether it stands above or below them. Active and inactive are the calls of the source. No cut-off for these calls is given here.

Legend:
[1] = Clearance in mouse plasma at 1 mg/kg, iv; type: ADME, organism-based
[2] = Volume of distribution at steady state in monkey at 0.1 mg/kg, iv; type: ADME, organism-based, Macaca mulatta; details: rhesus monkey, in vivo, read-out: Vdss
[3] = target: T1, Bromodomain-containing protein 4 (Homo sapiens, UniProt O60885); experiment: Inhibition of human N-terminal His6 tagged BRD4 BD2 (352 to 457) residues expressed in Escherichia coli BL21(DE3) cells after 1 hr by TR-FRET assay
[4] = AUC in dog at 0.3 mg/kg, po; type: ADME, organism-based, Canis lupus familiaris; details: in vivo
[5] = Clearance in dog plasma at 0.1 mg/kg, iv; type: ADME, organism-based, Canis lupus familiaris
[6] = Half life in mouse at 1 mg/kg, iv; type: ADME, organism-based; details: in vivo
[7] = Volume of distribution at steady state in mouse at 1 mg/kg, iv; type: ADME, organism-based; details: in vivo, read-out: Vdss
[8] = Oral bioavailability in mouse at 1 mg/kg; type: ADME, organism-based; details: in vivo
SKM-1 [9] = experiment: Antitumor activity against human SKM1 cells xenografted in SCID mouse assessed as tumor growth inhibition at 1 mg/kg, po qd for 21 days by caliper method; type: functional, organism-based
[10] = Oral bioavailability in rat at 1 mg/kg; type: ADME, organism-based; details: in vivo
[11] = Half life in monkey at 0.1 mg/kg, iv; type: ADME, organism-based, Macaca mulatta; details: rhesus monkey, in vivo
[12] = AUC in monkey at 0.1 mg/kg, iv; type: ADME, organism-based, Macaca mulatta; details: rhesus monkey, in vivo
[13] = Half life in dog at 0.3 mg/kg, po; type: ADME, organism-based, Canis lupus familiaris; details: in vivo
[14] = Volume of distribution at steady state in rat at 1 mg/kg, iv; type: ADME, organism-based; details: in vivo, read-out: Vdss
[15] = Half life in dog at 0.1 mg/kg, iv; type: ADME, organism-based, Canis lupus familiaris; details: in vivo
[16] = AUC in rat at 1 mg/kg, po; type: ADME, organism-based; details: in vivo
[17] = Volume of distribution at steady state in dog at 0.1 mg/kg, iv; type: ADME, organism-based, Canis lupus familiaris; details: in vivo, read-out: Vdss
[18] = Unbound hepatic clearance in monkey liver microsomes; type: ADME, Macaca mulatta, Microsome; details: rhesus monkey
[19] = Unbound hepatic clearance in mouse liver microsomes; type: ADME, Microsome
[20] = Clearance in monkey plasma at 0.1 mg/kg, iv; type: ADME, organism-based, Macaca mulatta; details: rhesus monkey
[21] = Oral bioavailability in monkey at 0.3 mg/kg; type: ADME, organism-based, Macaca mulatta; details: rhesus monkey, in vivo
[22] = AUC in mouse at 1 mg/kg, iv; type: ADME, organism-based; details: in vivo
[23] = Half life in rat at 1 mg/kg, po; type: ADME, organism-based; details: in vivo
[24] = AUC in rat at 1 mg/kg, iv; type: ADME, organism-based; details: in vivo
SKM-1 [25] = experiment: Antiproliferative activity against human SKM1 cells assessed as reduction in cell viability after 5 days by CellTiter-Glo assay; type: functional, cell-based; details: SKM-1, 120 h
[26] = Half life in mouse at 1 mg/kg, po; type: ADME, organism-based; details: in vivo
[27] = Unbound hepatic clearance in rat liver microsomes; type: ADME, Microsome
[28] = Unbound hepatic clearance in human liver microsomes; type: ADME, Microsome
[29] = Clearance in rat plasma at 1 mg/kg, iv; type: ADME, organism-based
[30] = target: T1, Bromodomain-containing protein 4; experiment: biochemical; type: cell-based
Description: Inhibition of human N-terminal His6 tagged BRD4 BD1 (57 to 168) residues expressed in Escherichia coli BL21(DE3) cells after 1 hr by TR-FRET assay

[31] = Permeability in dog MDCK cells by PAMPA; type: ADME, cell-based, Canis lupus familiaris; details: read-out: permeability
[32] = AUC in mouse at 1 mg/kg, po; type: ADME, organism-based; details: in vivo
[33] = Oral bioavailability in dog at 0.3 mg/kg; type: ADME, organism-based, Canis lupus familiaris; details: in vivo
[34] = Half life in rat at 1 mg/kg, iv; type: ADME, organism-based; details: in vivo
NCI-H1299 = experiment: Antiproliferative activity against human H1299 cells assessed as reduction in cell viability after 5 days by CellTiter-Glo assay; type: functional, cell-based; details: NCI-H1299, 120 h
[35] = AUC in dog at 0.1 mg/kg, iv; type: ADME, organism-based, Canis lupus familiaris; details: in vivo
SKM-1 [36] = experiment: Antitumor activity against human SKM1 cells xenografted in SCID mouse assessed as tumor growth inhibition at 60 mg/kg, po bid by caliper method; type: functional, organism-based

clearance [1]: 11.5 mL/min/kg
Vd [2]: 2.3 L/kg
Ki [3]: 1.1 nM
AUC [4]: 644 ng·h/mL
clearance [5]: 5.67 mL/min/kg
half-life [6]: 1 h
Vd [7]: 0.8 L/kg
bioavailability [8]: 53%
bioavailability [10]: 7%
half-life [11]: 1.5 h
AUC [12]: 89 ng·h/mL
half-life [13]: 0.3 h
Vd [14]: 3.5 L/kg
half-life [15]: 3.7 h
AUC [16]: 27 ng·h/mL
Vd [17]: 1.7 L/kg
CL free [18]: 533 mL/min/kg
CL free [19]: 700 mL/min/kg
clearance [20]: 20 mL/min/kg
bioavailability [21]: 0%
AUC [22]: 1440 ng·h/mL
half-life [23]: 1 h
AUC [24]: 384 ng·h/mL
IC50 (SKM-1 [25]): 5.2 nM
half-life [26]: 1 h
CL free [27]: 1070 mL/min/kg
CL free [28]: 90 mL/min/kg
clearance [29]: 45.2 mL/min/kg
Ki [30]: 120 nM
Papp [31]: 7.68 ×10⁻⁶ cm/s
AUC [32]: 760 ng·h/mL
bioavailability [33]: 74%
half-life [34]: 1.4 h
IC50 (NCI-H1299): 450 nM
AUC [35]: 291 ng·h/mL
SMILES: CCNC(=O)c1cc2c(-c3cc(S(=O)(=O)CC)ccc3Oc3c(C)cccc3C)cn(C)c(=O)c2[nH]1
inhibition (SKM-1 [9]): Active

Ki [3]: 40 nM
CL free [19]: 288 mL/min/kg
IC50 (SKM-1 [25]): 56 nM
CL free [27]: 282 mL/min/kg
CL free [28]: 63.3 mL/min/kg
Ki [30]: 13 nM
Papp [31]: 16 ×10⁻⁶ cm/s
IC50 (NCI-H1299): 390 nM
SMILES: CCN(C)C(=O)c1cc2c(-c3cc(S(C)(=O)=O)ccc3Oc3ccc(F)cc3F)cn(C)c(=O)c2[nH]1

Ki [3]: 1.1 nM
CL free [19]: 2330 mL/min/kg
IC50 (SKM-1 [25]): 14 nM
CL free [27]: 250 mL/min/kg
CL free [28]: 183 mL/min/kg
Ki [30]: 90 nM
Papp [31]: 1.06 ×10⁻⁶ cm/s
IC50 (NCI-H1299): 1600 nM
SMILES: CCNC(=O)c1cc2c(-c3cc(NC(C)=O)ccc3Oc3c(C)cc(F)cc3C)cn(C)c(=O)c2[nH]1

Ki [3]: 1 nM
CL free [19]: 1880 mL/min/kg
IC50 (SKM-1 [25]): 9.8 nM
CL free [27]: 1350 mL/min/kg
CL free [28]: 267 mL/min/kg
Ki [30]: 45 nM
Papp [31]: 10.5 ×10⁻⁶ cm/s
IC50 (NCI-H1299): 730 nM
SMILES: CCNC(=O)c1cc2c(-c3cc(S(=O)(=O)CC)ccc3Oc3c(C)cccc3Br)cn(C)c(=O)c2[nH]1

SMILES: CCS(=O)(=O)Nc1ccc(Oc2ccc(F)cc2F)c(-c2cn(C)c(=O)c3[nH]ccc23)c1
inhibition (SKM-1 [36]): Active

Ki [3]: 1.2 nM
CL free [19]: 1670 mL/min/kg
IC50 (SKM-1 [25]): 6.7 nM
CL free [27]: 817 mL/min/kg
CL free [28]: 8670 mL/min/kg
Ki [30]: 300 nM
Papp [31]: 1.47 ×10⁻⁶ cm/s
IC50 (NCI-H1299): 2100 nM
SMILES: CCNC(=O)c1cc2c(-c3cc(C4(O)CCOCC4)ccc3Oc3c(C)cc(F)cc3C)cn(C)c(=O)c2[nH]1

Ki [3]: 0.7 nM
CL free [19]: < 103 mL/min/kg
IC50 (SKM-1 [25]): 31 nM
CL free [27]: 188 mL/min/kg
CL free [28]: 50 mL/min/kg
Ki [30]: 6.6 nM
Papp [31]: 3.18 ×10⁻⁶ cm/s
IC50 (NCI-H1299): 110 nM
SMILES: CCNC(=O)c1cc2c(-c3cc(S(=O)(=O)CC)ccc3Oc3ccc(F)cc3F)cn(C)c(=O)c2[nH]1

Ki [3]: 1.8 nM
CL free [19]: 2170 mL/min/kg
IC50 (SKM-1 [25]): 50 nM
CL free [27]: 633 mL/min/kg
CL free [28]: 450 mL/min/kg
Ki [30]: 140 nM
Papp [31]: 15.9 ×10⁻⁶ cm/s
IC50 (NCI-H1299): 1300 nM
SMILES: CCNC(=O)c1cc2c(-c3cc(S(=O)(=O)CC)ccc3-n3ccc4ccccc43)cn(C)c(=O)c2[nH]1

Ki [3]: 0.6 nM
CL free [19]: 1720 mL/min/kg
IC50 (SKM-1 [25]): 20 nM
CL free [27]: 1780 mL/min/kg
CL free [28]: 300 mL/min/kg
Ki [30]: 38 nM
Papp [31]: 8.33 ×10⁻⁶ cm/s
IC50 (NCI-H1299): 730 nM
SMILES: CCNC(=O)c1cc2c(-c3cc(S(=O)(=O)C4CC4)ccc3Oc3c(C)cccc3C)cn(C)c(=O)c2[nH]1

Ki [3]: 1.1 nM
CL free [19]: 4330 mL/min/kg
IC50 (SKM-1 [25]): 14 nM
CL free [27]: 3000 mL/min/kg
CL free [28]: 783 mL/min/kg
Ki [30]: 220 nM
Papp [31]: 1.26 ×10⁻⁶ cm/s
IC50 (NCI-H1299): 1400 nM
SMILES: Cc1cccc(C)c1Oc1ccc(C(C)(C)O)cc1-c1cn(C)c(=O)c2[nH]c(C(=O)NC(C)(C)C)cc12

Ki [3]: 0.6 nM
CL free [19]: 2830 mL/min/kg
IC50 (SKM-1 [25]): 11 nM
CL free [27]: 1080 mL/min/kg
CL free [28]: 617 mL/min/kg
Ki [30]: 160 nM
Papp [31]: 6.3 ×10⁻⁶ cm/s
IC50 (NCI-H1299): 1200 nM
SMILES: CCNC(=O)c1cc2c(-c3cc(C(C)(C)O)ccc3Oc3c(C)cccc3C)cn(C)c(=O)c2[nH]1
